Laboratory results as given in patent US9073940B2, “Tricyclic pyrazol amine derivatives” (MERCK SERONO SA, priority 2009, dated 2015).

Test system: 4 PI3K isoforms (Human recombinant GST-PI3K)
Assay: PI3K scintillation proximity assay, best IC50 obtained with the four isoforms (alpha, beta, delta, gamma)
Type: biochemical
Conditions: best IC50 obtained with the four isoforms of PI3K; read-out: Best potency measured on the 4 PI3K isoforms

Row | Structure (SMILES) | IC50
1 | CC(C)CCOC1CCN(Cc2ccc(-n3nc(C(=O)N4CCOCC4)c4c3-c3ccccc3S(=O)(=O)C4)cc2)C1 (stereo not drawn) [Example 233, 1-(4-{[3-(3-Methylbutoxy)pyrrolidin-1-yl]methyl}phenyl)-3-(morpholin-4-ylcarbonyl)-1,4-dihydrothiochromeno[4,3-c]pyrazole 5,5-dioxide] | 167 nM
2 | CC(C)CCOC1CCN(Cc2cccc(-n3nc(C(=O)N4CCOCC4)c4c3-c3ccccc3S(=O)(=O)C4)c2)C1 (stereo not drawn) [Example 235, 1-(3-{[3-(3-Methylbutoxy)pyrrolidin-1-yl]methyl}phenyl)-3-(morpholin-4-ylcarbonyl)-1,4-dihydrothiochromeno[4,3-c]pyrazole 5,5-dioxide] | 389 nM
3 | O=C(O)c1nn(-c2ccc(CN3CCOCC3)cc2)c2c1CS(=O)(=O)c1ccccc1-2 [Example 238, 1-[4-(Morpholin-4-ylmethyl)phenyl]-1,4-dihydrothiochromeno[4,3-c]pyrazole-3-carboxylic acid 5,5-dioxide] | 4040 nM
4 | O=C(c1nn(Cc2nc3ccccc3s2)c2c1CS(=O)(=O)c1ccccc1-2)N1CCOCC1 [Example 239, 1-(1,3-Benzothiazol-2-ylmethyl)-3-(morpholin-4-ylcarbonyl)-1,4-dihydrothiochromeno[4,3-c]pyrazole 5,5-dioxide] | 1490 nM
5 | O=C(c1nn(-c2cccc(CN3CCCC(F)(F)C3)c2)c2c1CS(=O)(=O)c1ccccc1-2)N1CCOCC1 [Example 244, 1-{3-[(3,3-Difluoropiperidin-1-yl)methyl]phenyl}-3-(morpholin-4-ylcarbonyl)-1,4-dihydrothiochromeno[4,3-c]pyrazole 5,5-dioxide] | 1540 nM
6 | O=C(c1nn(C2CCOCC2)c2c1CS(=O)(=O)c1sccc1-2)N1CCOCC1 [Example 246, 3-(Morpholin-4-ylcarbonyl)-1-(tetrahydro-2H-pyran-4-yl)-1,4-dihydrothieno[3′,2′:5,6]thiopyrano[4,3-c]pyrazole 5,5-dioxide] | 824 nM
7 | COCc1cccc(-n2nc(C(=O)N3CCOCC3)c3c2-c2ccccc2S(=O)(=O)C3)c1 [Example 248, 1-[3-(Methoxylmethyl)phenyl]-3-(morpholin-4-ylcarbonyl)-1,4-dihydrothiochromeno[4,3-c]pyrazole 5,5-dioxide] | 997 nM
8 | O=C(c1nn(C2CCOCC2)c2c1CS(=O)(=O)c1c(F)cccc1-2)N1CCOCC1 [Example 249, 6-Fluoro-3-(morpholin-4-ylcarbonyl)-1-(tetrahydro-2H-pyran-4-yl)-1,4-dihydrothiochromeno[4,3-c]pyrazole 5,5-dioxide] | 1030 nM
9 | NC(=O)c1cccc2c1S(=O)(=O)Cc1c(C(=O)N3CCOCC3)nn(-c3ccccc3)c1-2 [Example 250, 3-(Morpholin-4-ylcarbonyl)-1-phenyl-1,4-dihydrothiochromeno[4,3-c]pyrazole-6-carboxamide 5,5-dioxide] | 7900 nM
10 | CC(C)(C)OC(=O)N1CCC(n2nc(C(=O)N3CCOCC3)c3c2-c2ccccc2S(=O)(=O)C3)C1 (stereo not drawn) [Example 254] | 1200 nM
11 | COCCN1CCC(n2nc(C(=O)N3CCOCC3)c3c2-c2ccccc2S(=O)(=O)C3)C1 (stereo not drawn) [Example 255, 1-[1-(2-Methoxyethyl)pyrrolidin-3-yl]-3-(morpholin-4-ylcarbonyl)-1,4-dihydrothiochromeno[4,3-c]pyrazole 5,5-dioxide] | 1480 nM
12 | COCCCN1CCC(n2nc(C(=O)N3CCOCC3)c3c2-c2ccccc2S(=O)(=O)C3)C1 (stereo not drawn) [Example 256, 1-[1-(3-Methoxypropyl)pyrrolidin-3-yl]-3-(morpholin-4-ylcarbonyl)-1,4-dihydrothiochromeno[4,3-c]pyrazole 5,5-dioxide] | 923 nM
13 | CC(C)(C)OC(=O)N1CCCC(n2nc(C(=O)N3CCOCC3)c3c2-c2ccccc2S(=O)(=O)C3)CC1 (stereo not drawn) [Example 257] | 824 nM

Second part, the compound after the results:

Row | IC50 | Structure (SMILES)
14 | 240 nM | COC1CCN(Cc2cccc(-n3nc(C(=O)N4CCOCC4)c4c3-c3ccccc3S(=O)(=O)C4)c2)CC1 [Example 234, 1-{3-[(4-Methoxypiperidin-1-yl)methyl]phenyl}-3-(morpholin-4-ylcarbonyl)-1,4-dihydrothiochromeno[4,3-c]pyrazole 5,5-dioxide]
15 | 232 nM | O=C(c1nn(-c2cccc(CN3CCSCC3)c2)c2c1CS(=O)(=O)c1ccccc1-2)N1CCOCC1 [Example 236, 3-(Morpholin-4-ylcarbonyl)-1-[3-(thiomorpholin-4-ylmethyl)phenyl]-1,4-dihydrothiochromeno[4,3-c]pyrazole 5,5-dioxide]
16 | 573 nM | O=C(c1nn(-c2cccc(CN3CCC(O)CC3)c2)c2c1CS(=O)(=O)c1ccccc1-2)N1CCOCC1 [Example 237, 1-{3-[3-(Morpholin-4-ylcarbonyl)-5,5-dioxidothiochromeno[4,3-c]pyrazol-1 (4H)-yl]benzyl}piperidin-4-ol]
17 | 624 nM | O=C(c1nn(Cc2cc(Cl)cs2)c2c1CS(=O)(=O)c1ccccc1-2)N1CCOCC1 [Example 240, 1-[(4-Chloro-2-thienyl)methyl]-3-(morpholin-4-ylcarbonyl)-1,4-dihydrothiochromeno[4,3-c]pyrazole 5,5-dioxide]
18 | 437 nM | O=C(c1nn(-c2cccc(CN3CCC(F)CC3)c2)c2c1CS(=O)(=O)c1ccccc1-2)N1CCOCC1 [Example 242, 1-{3-[(4-Fluoropiperidin-1-yl)methyl]phenyl}-3-(morpholin-4-ylcarbonyl)-1,4-dihydrothiochromeno[4,3-c]pyrazole 5,5-dioxide]
19 | 464 nM | CS(=O)(=O)C1CCN(Cc2cccc(-n3nc(C(=O)N4CCOCC4)c4c3-c3ccccc3S(=O)(=O)C4)c2)C1 (stereo not drawn) [Example 243, 1-(3-{[3-(Methylsulfonyl)pyrrolidin-1-yl]methyl}phenyl)-3-(morpholin-4-ylcarbonyl)-1,4-dihydrothiochromeno[4,3-c]pyrazole 5,5-dioxide]
20 | 516 nM | O=C(c1nn(-c2cccc(CN3CCCC3)c2)c2c1CS(=O)(=O)c1ccccc1-2)N1CCOCC1 [Example 245, 3-(Morpholin-4-ylcarbonyl)-1-[3-(pyrrolidin-1-ylmethyl)phenyl]-1,4-dihydrothiochromeno[4,3-c]pyrazole 5,5-dioxide]
21 | 639 nM | O=C(c1nn(-c2cccc(CN3CCS(=O)(=O)CC3)c2)c2c1CS(=O)(=O)c1ccccc1-2)N1CCOCC1 [Example 247, 1-{3-[(1,1-Dioxidothiomorpholin-4-yl)methyl]phenyl}-3-(morpholin-4-ylcarbonyl)-1,4-dihydrothiochromeno[4,3-c]pyrazole 5,5-dioxide]
22 | 335 nM | CN1CCN(Cc2ccc(-n3nc(C(=O)N4CCOCC4)c4c3-c3ccccc3S(=O)(=O)C4)cn2)CC1 [Example 252, 1-{6-[(4-Methylpiperazin-1-yl)methyl]pyridin-3-yl}-3-(morpholin-4-ylcarbonyl)-1,4-dihydrothiochromeno[4,3-c]pyrazole 5,5-dioxide]
23 | 72 nM | CN(C)CCN1CCCC(n2nc(C(=O)N3CCOCC3)c3c2-c2ccccc2S(=O)(=O)C3)C1 (stereo not drawn) [Example 253, N,N-Dimethyl-2-{3-[3-(morpholin-4-ylcarbonyl)-5,5-dioxidothiochromeno[4,3-c]pyrazol-1 (4H)-yl]piperidin-1-yl}ethanamine]
24 | 438 nM | COCCCN1CCCC(n2nc(C(=O)N3CCOCC3)c3c2-c2ccccc2S(=O)(=O)C3)CC1 (stereo not drawn) [Example 258, 1-[1-(3-Methoxypropyl)azepan-4-yl]-3-(morpholin-4-ylcarbonyl)-1,4-dihydrothiochromeno[4,3-c]pyrazole 5,5-dioxide]
